{"source": "ChEMBL document CHEMBL3817808", "about": "“Enlarging the chemical space of anti-leishmanials: a structureactivity relationship study of peptoids against Leishmania mexicana, a causative agent of cutaneous leishmaniasis” (Medchemcomm, 2016)", "key": {"Leishmania mexicana [1]": {"tested_on": "Leishmania mexicana", "assay": "Antileishmanial activity against axenic amastigote form of Leishmania mexicana MNYC/BZ/62/M379 assessed as parasite viability measured after 1 hr by alamarBlue staining based fluorescence analysis", "type": "functional", "settings": "MNYC/BZ/62/M379, 1 h, read-out: ED50 (the source's name)"}, "Leishmania mexicana [2]": {"tested_on": "Leishmania mexicana", "assay": "Antileishmanial activity against Leishmania mexicana MNYC/BZ/62/M379 promastigotes assessed as parasite viability measured after 1 hr by alamarBlue staining based fluorescence analysis", "type": "functional", "settings": "MNYC/BZ/62/M379, 1 h, read-out: ED50 (the source's name)"}}, "note": "Non-standard residues stand in square brackets, D forms with d. Residues, ends and D or L forms follow the SMILES beside them. Nspe = C[C@H](NCC(=O)O)c1ccccc1; Nphe = O=C(O)CNCc1ccccc1; Nleu = CC(C)CNCC(=O)O; Nlys = NCCCCNCC(=O)O", "data": [{"molecule": "CC(C)CN(CC(=O)N(CC(N)=O)[C@@H](C)c1ccccc1)C(=O)CN(CCCCN)C(=O)CN(C(=O)CN(CC(C)C)C(=O)CN(CCCCN)C(=O)CN(C(=O)CN(CC(C)C)C(=O)CNCCCCN)[C@@H](C)c1ccccc1)[C@@H](C)c1ccccc1", "note": "(H-[Nlys][Nleu][Nspe][Nlys][Nleu][Nspe][Nlys][Nleu][Nspe]-NH2)", "values": [{"measurement": "EC50", "setting": "Leishmania mexicana [1]", "value": "> 100", "unit": "µM"}, {"measurement": "EC50", "setting": "Leishmania mexicana [2]", "value": "> 100", "unit": "µM"}]}, {"molecule": "CC(C)CN(CC(=O)N(CC(N)=O)[C@@H](C)c1ccccc1)C(=O)CN(CCCCN)C(=O)CN(C(=O)CN(CC(C)C)C(=O)CN(CCCCN)C(=O)CN(C(=O)CN(CC(C)C)C(=O)CN(CCCCN)C(=O)CN(C(=O)CN(CC(C)C)C(=O)CNCCCCN)[C@@H](C)c1ccccc1)[C@@H](C)c1ccccc1)[C@@H](C)c1ccccc1", "note": "(H-[Nlys][Nleu][Nspe][Nlys][Nleu][Nspe][Nlys][Nleu][Nspe][Nlys][Nleu][Nspe]-NH2)", "values": [{"measurement": "EC50", "setting": "Leishmania mexicana [1]", "value": "> 100", "unit": "µM"}, {"measurement": "EC50", "setting": "Leishmania mexicana [2]", "value": "> 100", "unit": "µM"}]}, {"molecule": "NCCCCNCC(=O)N(CC(=O)N(CC(=O)N(CCCCN)CC(=O)N(CC(=O)N(CC(N)=O)Cc1ccccc1)Cc1ccccc1)Cc1ccccc1)Cc1ccccc1", "note": "(H-[Nlys][Nphe][Nphe][Nlys][Nphe][Nphe]-NH2)", "values": [{"measurement": "EC50", "setting": "Leishmania mexicana [1]", "value": "> 100", "unit": "µM"}, {"measurement": "EC50", "setting": "Leishmania mexicana [2]", "value": "> 100", "unit": "µM"}]}, {"molecule": "NCCCCNCC(=O)N(CC(=O)N(CC(=O)N(CCCCN)CC(=O)N(CC(=O)N(CC(=O)N(CCCCN)CC(=O)N(CC(=O)N(CC(=O)N(CCCCN)CC(=O)N(CC(=O)N(CC(N)=O)Cc1ccccc1)Cc1ccccc1)Cc1ccccc1)Cc1ccccc1)Cc1ccccc1)Cc1ccccc1)Cc1ccccc1)Cc1ccccc1", "note": "(H-[Nlys][Nphe][Nphe][Nlys][Nphe][Nphe][Nlys][Nphe][Nphe][Nlys][Nphe][Nphe]-NH2)", "values": [{"measurement": "EC50", "setting": "Leishmania mexicana [1]", "value": "> 100", "unit": "µM"}, {"measurement": "EC50", "setting": "Leishmania mexicana [2]", "value": 15, "unit": "µM"}]}, {"molecule": "C[C@@H](c1ccccc1)N(CC(N)=O)C(=O)CN(C(=O)CN(CCCCN)C(=O)CN(C(=O)CN(C(=O)CNCCCCN)[C@@H](C)c1ccccc1)[C@@H](C)c1ccccc1)[C@@H](C)c1ccccc1", "note": "(H-[Nlys][Nspe][Nspe][Nlys][Nspe][Nspe]-NH2)", "values": [{"measurement": "EC50", "setting": "Leishmania mexicana [1]", "value": "> 100", "unit": "µM"}, {"measurement": "EC50", "setting": "Leishmania mexicana [2]", "value": "> 100", "unit": "µM"}]}, {"molecule": "C[C@@H](c1ccccc1)N(CC(N)=O)C(=O)CN(C(=O)CN(CCCCN)C(=O)CN(C(=O)CN(C(=O)CN(CCCCN)C(=O)CN(C(=O)CN(C(=O)CN(CCCCN)C(=O)CN(C(=O)CN(C(=O)CNCCCCN)[C@@H](C)c1ccccc1)[C@@H](C)c1ccccc1)[C@@H](C)c1ccccc1)[C@@H](C)c1ccccc1)[C@@H](C)c1ccccc1)[C@@H](C)c1ccccc1)[C@@H](C)c1ccccc1", "note": "(H-[Nlys][Nspe][Nspe][Nlys][Nspe][Nspe][Nlys][Nspe][Nspe][Nlys][Nspe][Nspe]-NH2)", "values": [{"measurement": "EC50", "setting": "Leishmania mexicana [1]", "value": "> 100", "unit": "µM"}, {"measurement": "EC50", "setting": "Leishmania mexicana [2]", "value": 8, "unit": "µM"}]}, {"molecule": "CCCCCN(CC(=O)N(CC(=O)N(CC(=O)N(CCCCN)CC(=O)N(CC(=O)N(CC(N)=O)[C@@H](C)c1ccccc1)[C@@H](C)c1ccccc1)C(C)c1ccccc1)[C@@H](C)c1ccccc1)C(=O)CN(C(=O)CN(C(=O)CN(CCCCN)C(=O)CN(C(=O)CN(C(=O)CNCCCCN)[C@@H](C)c1ccccc1)C(C)c1ccccc1)[C@@H](C)c1ccccc1)C(C)c1ccccc1", "note": "(single isomer, unassigned)", "values": [{"measurement": "EC50", "setting": "Leishmania mexicana [1]", "value": 15, "unit": "µM"}, {"measurement": "EC50", "setting": "Leishmania mexicana [2]", "value": 10, "unit": "µM"}]}, {"molecule": "CCCCCNCC(=O)N(CC(=O)N(CC(=O)N(CCCCN)CC(=O)N(CC(=O)N(CC(=O)N(CCCCC)CC(=O)N(CC(=O)N(CC(=O)N(CCCCN)CC(=O)N(CC(=O)N(CC(N)=O)[C@@H](C)c1ccccc1)[C@@H](C)c1ccccc1)C(C)c1ccccc1)[C@@H](C)c1ccccc1)C(C)c1ccccc1)[C@@H](C)c1ccccc1)C(C)c1ccccc1)[C@@H](C)c1ccccc1", "note": "(single isomer, unassigned)", "values": [{"measurement": "EC50", "setting": "Leishmania mexicana [1]", "value": 17, "unit": "µM"}, {"measurement": "EC50", "setting": "Leishmania mexicana [2]", "value": 10, "unit": "µM"}]}, {"molecule": "CCCCCNCC(=O)N(CC(=O)N(CC(=O)N(CCCCN)CC(=O)N(CC(=O)N(CC(=O)N(CCCCN)CC(=O)N(CC(=O)N(CC(=O)N(CCCCN)CC(=O)N(CC(=O)N(CC(N)=O)[C@@H](C)c1ccccc1)[C@@H](C)c1ccccc1)C(C)c1ccccc1)[C@@H](C)c1ccccc1)[C@@H](C)c1ccccc1)[C@@H](C)c1ccccc1)C(C)c1ccccc1)[C@@H](C)c1ccccc1", "note": "(single isomer, unassigned)", "values": [{"measurement": "EC50", "setting": "Leishmania mexicana [1]", "value": 21, "unit": "µM"}, {"measurement": "EC50", "setting": "Leishmania mexicana [2]", "value": 8, "unit": "µM"}]}]}
